Values of other authors in patent publication US20030165566A1, “Sedative non-benzodiazepine formulations” (priority 2002, published 2003).
Where a name gives a salt, the structure may show the parent alone. Read-outs that look alike come from different tables or passages of the source.

How the values were obtained:
[1] = in vivo
[2] = 10 mg
[3] = single 20 mg oral dose, elderly (>70 years) vs 20 to 40 years
[4] = single 20 mg oral dose, elderly subjects (>70 years)
[5] = single 20 mg oral dose, younger adults (20 to 40 years)
[6] = 20 minutes after a meal vs fasting

Q: With `Cc1ccc(-c2nc3ccc(C)cn3c2CC(=O)N(C)C)cc1` [Zolpidem] as the compound, how does the “increase of mean AUC, elderly vs younger adults” value [3] read?
A: 64%

Q: And the “increase of mean Cmax, elderly vs younger adults” value [3]?
A: 50%

Q: What about the “increase of mean T1/2, elderly vs younger adults” value [3] of the same compound?
A: 32%

Q: What about the “mean AUC” value [4] of the same compound?
A: 1,562 ng/hr/ml

Q: And the “mean Cmax” value [4]?
A: 284 ng/mL

Q: And the “mean T1/2” value [4]?
A: 2.9 h

Q: What about the “mean AUC” value [5] of the same compound?
A: 955 ng/h/mL

Q: What about the “mean Cmax” value [5] of the same compound?
A: 255 ng/mL

Q: What about the “mean T1/2” value [5] of the same compound?
A: 2.2 h

Q: What about the half-life [1] of the same compound?
A: approximately 2.5 hours

Q: With `Cc1ccc(-c2nc3ccc(C)cn3c2CC(=O)N(C)C)cc1` [zolpidem tartrate] as the compound, how does the “mean Tmax” value ([2]; 20 minutes after a meal) read?
A: 2.2 h

Q: And the “decrease of mean AUC with food” value [2, 6]?
A: 15%

Q: And the “decrease of mean Cmax with food” value [2, 6]?
A: 25%

Q: And the half-life with food [2, 6]?
A: remained unchanged

Q: And the “prolongation of mean Tmax with food” value [2, 6]?
A: 60%

Q: And the “mean Tmax” value ([2]; fasting)?
A: 1.4 h

Q: And the accumulation (elderly subjects, nightly oral dosing 10 mg for 1 week)?
A: did not accumulate
